Measured values as given in patent US20180201899A1, “IPSC-EC PERFORMANCE ENHANCEMENT VIA SIRT1 OVEREXPRESSION” (Northwestern University, priority 2015, published 2018).

System: iPSC-ECs
Test: Senescence associated β-galactosidase staining
Type: cell-based
Method: Nitric oxide (NO) production was assessed via 4,5-diaminofluorescein.diacetate (DAF 2-DA) assay (Life Technologies). Cell mitogenic effect in response to VEGF (100 ng/ml) was assessed via MTT assay (Sigma-Aldrich) after treating cells in serum-free (starvation) medium, or starvation medium containing 100 ng/ml VEGF for 24 hours. Cell proliferation was determined by counting cell number every seven days after lentiviral transduction using a hemocytometer by excluding dead cells with Trypan blue. […] All results were normalized to cell number via Alamar blue assay (Sigma-Aldrich).Cellular senescence assay kit (Cell Signaling Technology, Danvers, Mass.) was used to stain for senescence associated β-galactosidase (β-gal) in the presence or absence of Ex-527 (10 μM), a SIRT1 inhibitor, and the percentage of β-gal positive cells was quantified with ImageJ. […]
Cellular senescence assay kit (Cell Signaling Technology, Danvers, Mass.) was used to stain for β-galactosidase (β-gal) in the presence or absence of Ex-527 (10 μM), a SIRT1 inhibitor (18), and the percentage of β-gal positive cells was quantified with ImageJ. […] Cell proliferation was determined by counting cell number every seven days after lentiviral transduction using a hemocytometer by excluding dead cells with Trypan blue. […] NO production was assessed via 4,5-diaminofluorescein.diacetate (DAF 2-DA) assay (Life Technologies). […]

## NC(=O)C1CCCc2c1[nH]c1ccc(Cl)cc21 (centres unmarked) [Ex-527]
10 μM Ex-527, LV-empty transduced cells, passage 6
  β-gal+ (senescent) cells: 56.0±6.2%
10 μM Ex-527, all lentiviral groups
  effect on percentage of senescent cells: higher percentage of senescent cells in all groups
